{
  "source": "patent US11034839B2",
  "about": "“Compounds, linked with haptens, for the detection of senescent cells” (THE UNIVERSITY OF MANCHESTER, priority 2016, dated 2021)",
  "key": {"[1]": {"tested_on": "lipofuscin rich senescent cells, induced Saos2-p21WAF1/Cip1 Tet-ON cells", "assay": "Immunohistochemistry staining in induced Saos2-p21WAF1/Cip1 Tet-ON cellular system", "assay_type": "cell-based, human", "settings": "FIG. 13", "experimental": "• 1. Compound (LG13) • 2. 100% ethanol (100% EtOH) • 3. Parafilm • 4. Fritted glass filter of medium porosity • 5. Airtight Dye Container 2.2.2 General Procedure: • 1. Dissolve 40 mg of the compound (LG13) in 7.4 ml 100% EtOH in a glass beaker and cover it with parafilm. • 2. Incubate at 56° C. in a waterbath for 120 min until the compound is completely dissolved. 2.3. General Method for Compound (LG13) Staining 2.3.1 Materials: • 1. Xylene • 2. […] Syringe • 4. 13 mm filter, membrane 0.22 μm • 5. Soft paper (dry or dipped in ethanol) • 6. Anti-biotin antibody ([Hyb-8] ab201341, Abcam) • 7. Ultravision Quanto Detection System HRP DAB kit (Cat no: TL-125-QHD) • 8. Glycerol (Sigma-Aldrich) • 9. Tris Buffered Saline (TBS; 10×): 1.5 M NaCl, 0.1 M Tris-HCl, pH 7.4. Store at 4° C. • 10. 0.5% Triton X/TBS: 0.5 ml Triton X diluted in 99.5 ml TBS • 11. Mounting media Glycergel (DakoCytomation). • 12. Light Microscope • 13. Anti-p21^WAF1/Cip1 mouse primary antibody [(F-5)(sc-6246) Santa-Cruz] • 14. Anti-p16^INK4A mouse primary antibody [(sc-74401) Santa-Cruz] • 15. Anti-Ki67 rabbit polyclonal antibody [ab16667, Abcam] • 16. Secondary goat anti-mouse antibody Alexa Fluor 568 conjugated [Thermo Fisher Scientific (Cat no: A-11004)] • 17. DAPI (4′,6-Diamidino-2-Phenylindole, Dihydrochloride) [Thermo Fisher Scientific (Cat no: D1306)] • 18. Fluorescence microscope 2.3.2 General Procedures: 2.3.2.1 General Staining Protocol for Cells Mounted on Coverslips • 1. Wash ×1 in TBS for 5 min at RT. • 2. Block the endogenous hydrogen peroxidase, using the UltraVision Hydrogen Peroxide Block included in the Ultravision Quanto Detection System HRP DAB kit (Cat no: TL-125-QHD) for 10 min at RT and in dark conditions. • 3. Wash ×2 in TBS for 30 sec and ×1 for 5 min at RT. • 4. Wash ×1 in EtOH 50% for 5 min at RT. • 5. Wash ×1 EtOH 70% for 5 min at RT. • 6. […] The staining reaction is monitored under the light microscope until detection of the signal (average time 5-8 min). • 8. […] The staining reaction is monitored under the light microscope until detection of the dark brown signal (average time 30 sec-1 min) at RT 1. • 20. […]"}, "[2]": {"assay": "Ethanol solubility", "assay_type": "physicochemical"}, "[3]": {"tested_on": "senescent cells (lipofuscin)", "settings": "Georgakopoulou et al, 2013; cited from earlier work"}, "[4]": {"tested_on": "HeLa cancer cells and near normal Li-Fraumeni fibroblasts", "assay": "False-positive studies (cell confluency, serum starvation)", "assay_type": "cell-based, human", "settings": "compared with SA-b-gal, FIGS. 17 and 18", "excerpt": "The in vitro models comprised seven cellular systems. […] The same cellular system was used at early passages that underwent SIPS upon y-irradiation and was compared in relation to non-irradiated counterparts. Another set of models comprised two inducible Saos2 Tet-ON osteosarcoma cell lines carrying p53 and p21^WAF1/Cip1, respectively, two well established effectors of senescence (Georgakopoulou et al., 2013; Galanos et al., 2016). Finally, the U2OS-E2F1 ER, U205-Cdt1 Tet-ON and HBECs-Cdc6 Tet-ON inducible systems that undergo SIPS due to oncogenic stress signals were also utilized (Petrakis et al., 2016; Liontos et al., 2007; Liontos et al., 2009). Parental cell lines were obtained either directly from ATCC or from collaborating laboratories that generated them. In addition, the human cancer cell line HeLa and near normal Li-Fraumeni fibroblasts (Galanos et al., 2016) were also employed as control cell lines for the specificity of staining of the SBB compounds."}, "[5]": {"tested_on": "senescent cells in biological systems with established senescence", "assay": "Quantitative analysis and concordance of SA-b-gal, SBB and GL13 staining", "settings": "FIG. 15"}, "[6]": {"tested_on": "lipofuscin", "settings": "Georgakopoulou et al., 2013; cited from earlier work"}, "[7]": {"tested_on": "senescent cells in irradiated human laryngeal tumors and mouse lung adenomas", "assay": "Histochemical staining of paraffin embedded, formalin fixed tissue sections (same method as for SBB)", "settings": "FFPE sections of irradiated human laryngeal tumors and mouse lung adenomas; dye in 70% ethanol, 10 min", "excerpt": "In the following comparative example 1 the histochemical dye SBB was used to detect senescent cells in tissue sections by the histochemical method previously described [Georgakopoulou et al, Aging (Albany N.Y.) 2013].\nTissue sections were obtained from paraffin embedded, formalin fixed: (a) irradiated human laryngeal tumors and (b) mouse lung adenomas, with established presence of senescent cells. Subsequently, they were immobilized on glass microscopy slides by standard procedures and processed as follows: • a. Deparaffinization for 5 min at room temperature in xylene. • b. Gradual rehydration in solutions of descending concentration of ethanol (100%, 80%, 70%, 50% v/v) and finally in TBS (Tris-buffered saline) or PBS (Phosphate-buffered saline) solution. • c. The SBB dye was diluted in 70% ethanol (v/v), filtered and then applied on tissue sections for 10 min. • d. Quick wash in 50% (v/v) ethanol. • e. Transfer and wash in TBS or PBS solution. • f. Counterstain with Hematoxylin or Nuclear Fast Red, followed by mounting with glycerol and sealed with a cover slip. • g. Microscopy observation. […]"}},
  "data": [
    {"smiles": "CC1(C)Nc2cccc3c(/N=N/c4ccc(/N=N/c5ccc(CCOC(=O)CCCC[C@H]6SC[C@H]7NC(=O)N[C@H]76)cc5)c5ccccc45)ccc(c23)N1", "note": "[LG52, 4-((E)-(4-((E)-(2,2-Dimethyl-2,3-dihydro-1H-perimidin-6-yl)diazenyl)naphthalen-1-yl)diazenyl)phenethyl 5-((3aR,4R,6aS)-2-oxohexahydro-1H-thieno[3,4-d]imidazol-4-yl)pentanoate]", "values": [
      {"measurement": "detection of lipofuscin rich senescent cells by immunohistochemistry staining", "setting": "[1]", "value": "detect robustly lipofuscin rich senescent cells"}
    ]},
    {"smiles": "CC1(C)Nc2cccc3c(/N=N/c4ccc(/N=N/c5ccccc5)c5ccccc45)ccc(c23)N1", "note": "[SBB, Sudan Black B]", "values": [
      {"measurement": "ethanol solubility", "setting": "[2]", "value": "ethanol solubility problems"},
      {"measurement": "selectivity of lipofuscin stain for senescent cells", "setting": "[3]", "value": "highly selective for the detection of senescent cells"},
      {"measurement": "false-positive staining due to serum starvation and cell confluency", "setting": "[4]", "value": "deprived of the false-positive staining disadvantages"},
      {"measurement": "specificity compared among SA-b-gal, SBB and GL13 staining", "setting": "[5]", "value": "concordance of specificity"},
      {"measurement": "effect of staining on lipofuscin autofluorescence", "setting": "[6]", "value": "quenched"},
      {"measurement": "histochemical staining of senescent cells", "setting": "[7]", "value": "senescent cells are clearly stained"}
    ]},
    {"smiles": "CC1(CCCOC(=O)CCCC[C@H]2SC[C@H]3NC(=O)N[C@H]32)Nc2cccc3c(/N=N/c4ccc(/N=N/c5ccccc5)c5ccccc45)ccc(c23)N1", "note": "(stereo partly drawn) [LG56, 3-(2-Methyl-6-((E)-(4-((E)-phenyldiazenyl)naphthalen-1-yl)diazenyl)-2,3-dihydro-1H-perimidin-2-yl)propyl 5-((3aR,4R,6aS)-2-oxohexahydro-1H-thieno[3,4-d]imidazol-4-yl)pentanoate]", "values": [
      {"measurement": "detection of lipofuscin rich senescent cells by immunohistochemistry staining", "setting": "[1]", "value": "detect robustly lipofuscin rich senescent cells"}
    ]},
    {"smiles": "CC1(CCOC(=O)CCCC[C@H]2SC[C@H]3NC(=O)N[C@H]32)Nc2cccc3c(/N=N/c4ccc(/N=N/c5ccccc5)c5ccccc45)ccc(c23)N1", "note": "(stereo partly drawn) [LG39, 2-(2-Methyl-6-((E)-(4-((E)-phenyldiazenyl)naphthalen-1-yl)diazenyl)-2,3-dihydro-1H-perimidin-2-yl)ethyl 5-((3aR,4R,6aS)-2-oxohexahydro-1H-thieno[3,4-d]imidazol-4-yl)pentanoate]", "values": [
      {"measurement": "detection of lipofuscin rich senescent cells by immunohistochemistry staining", "setting": "[1]", "value": "detect robustly lipofuscin rich senescent cells"}
    ]}
  ]
}
